Reference: PubChem BioAssay AID1963861 (Molecular Pharmacology Branch, DTP, NCI, 2024)

Tested on: 885724-159-R-J1-PDC KRAS PDC multicell spheroid viability
Test: Anticancer human tumor 885724-159-R-J1-PDC patient-derived pancreatic adenocarcinoma cell line growth inhibition [KRAS2]
Details: for IC50: curve of first compound; for viability, T/C: stronger effect = lower value
Outline: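 Combination screen of spheroid viability in tumor-cell co-cultures with endothelial (HUVEC) and mesenchymal stem cell stroma. Each agent was tested in half-log dilutions, topping at clinical Cmax or at 10 microM without a known Cmax.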

[1] = second compound 0.1 µM, first compound 0.0316 µM
[2] = second compound 0.1 µM, first compound 0.1 µM
[3] = second compound 0.316 µM, first compound 0.0316 µM
[4] = second compound 0.316 µM, first compound 0.1 µM
[5] = second compound 1 µM, first compound 0.0316 µM
[6] = second compound 1 µM, first compound 0.1 µM
[7] = second compound 3.16 µM, first compound 0.0316 µM
[8] = second compound 3.16 µM, first compound 0.1 µM
[9] = second compound 10 µM, first compound 0.0316 µM
[10] = second compound 10 µM, first compound 0.1 µM
[11] = second compound 0.1 µM, first compound 0.316 µM
[12] = second compound 0.1 µM, first compound 1 µM
[13] = second compound 0.1 µM, first compound 3.16 µM
[14] = second compound 0.1 µM, first compound 10 µM
[15] = second compound 0.316 µM, first compound 0.316 µM
[16] = second compound 0.316 µM, first compound 1 µM
[17] = second compound 0.316 µM, first compound 3.16 µM
[18] = second compound 0.316 µM, first compound 10 µM
[19] = second compound 1 µM, first compound 0.316 µM
[20] = second compound 1 µM, first compound 1 µM
[21] = second compound 1 µM, first compound 3.16 µM
[22] = second compound 1 µM, first compound 10 µM
[23] = second compound 3.16 µM, first compound 0.316 µM
[24] = second compound 3.16 µM, first compound 1 µM
[25] = second compound 3.16 µM, first compound 3.16 µM
[26] = second compound 3.16 µM, first compound 10 µM
[27] = second compound 10 µM, first compound 0.316 µM
[28] = second compound 10 µM, first compound 1 µM
[29] = second compound 10 µM, first compound 3.16 µM
[30] = second compound 10 µM, first compound 10 µM
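Further: spheroids exposed to agents for 7 days before readout.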

Structure (SMILES)	IC50 (second compound 0.1 µM) [µM]	IC50 (second compound 0.316 µM) [µM]	IC50 (second compound 1 µM) [µM]	IC50 (second compound 3.16 µM) [µM]	IC50 (second compound 10 µM) [µM]	viability, T/C [1] [%]	viability, T/C [2] [%]	viability, T/C [3] [%]	viability, T/C [4] [%]	viability, T/C [5] [%]	viability, T/C [6] [%]	viability, T/C [7] [%]	viability, T/C [8] [%]	viability, T/C [9] [%]	viability, T/C [10] [%]	viability, T/C [11] [%]	viability, T/C [12] [%]	viability, T/C [13] [%]	viability, T/C [14] [%]	viability, T/C [15] [%]	further results
CC(C)n1nc(-c2ccc3oc(N)nc3c2)c2c(N)ncnc21 + COc1cc2nc(C)nc(NC(C)c3cc(N)cc(C(F)(F)F)c3)c2cc1OC1CCOC1	0.017	0.0203	0.0181	0.00762	< 0.000316	47	40.3	45	39.2	46.9	42	47	42.6	31.4	20.9						viability, T/C (second compound 0.1 µM, first compound 0.000316 µM): 91.2%; viability, T/C (second compound 0.1 µM, first compound 0.001 µM): 76.2%; viability, T/C (second compound 0.1 µM, first compound 0.00316 µM): 62.7%; viability, T/C (second compound 0.1 µM, first compound 0.01 µM): 53.2%; viability, T/C (second compound 0.316 µM, first compound 0.000316 µM): 90.3%; viability, T/C (second compound 0.316 µM, first compound 0.001 µM): 75.8%; viability, T/C (second compound 0.316 µM, first compound 0.00316 µM): 66.4%; viability, T/C (second compound 0.316 µM, first compound 0.01 µM): 57.2%; viability, T/C (second compound 1 µM, first compound 0.000316 µM): 93%; viability, T/C (second compound 1 µM, first compound 0.001 µM): 78.8%; viability, T/C (second compound 1 µM, first compound 0.00316 µM): 59.7%; viability, T/C (second compound 1 µM, first compound 0.01 µM): 56%; viability, T/C (second compound 3.16 µM, first compound 0.000316 µM): 76.4%; viability, T/C (second compound 3.16 µM, first compound 0.001 µM): 69.8%; viability, T/C (second compound 3.16 µM, first compound 0.00316 µM): 54.8%; viability, T/C (second compound 3.16 µM, first compound 0.01 µM): 49.1%; viability, T/C (second compound 10 µM, first compound 0.000316 µM): 36.4%; viability, T/C (second compound 10 µM, first compound 0.001 µM): 24.9%; viability, T/C (second compound 10 µM, first compound 0.00316 µM): 47.5%; viability, T/C (second compound 10 µM, first compound 0.01 µM): 39.8%
CC1(C)CCC(CN2CCN(c3ccc(C(=O)NS(=O)(=O)c4ccc(NCC5CCOCC5)c([N+](=O)[O-])c4)c(Oc4cnc5[nH]ccc5c4)c3)CC2)=C(c2ccc(Cl)cc2)C1 + COc1cc2nc(C)nc(NC(C)c3cc(N)cc(C(F)(F)F)c3)c2cc1OC1CCOC1	7.29	6.93	5.01	4.31	< 0.0316	93.7	91.3	96.9	88.4	91.2	88.3	84.4	82.8	31.2	35.5	91.8	88.3	82.2	37.6	86	viability, T/C [16]: 92.7%; viability, T/C [17]: 79.5%; viability, T/C [18]: 35.7%; viability, T/C [19]: 81.9%; viability, T/C [20]: 83.1%; viability, T/C [21]: 64.1%; viability, T/C [22]: 28%; viability, T/C [23]: 84.4%; viability, T/C [24]: 71.7%; viability, T/C [25]: 59.7%; viability, T/C [26]: 26.4%; viability, T/C [27]: 23.4%; viability, T/C [28]: 27.7%; viability, T/C [29]: 26.2%; viability, T/C [30]: 8.47%
COc1cc(Nc2ncc3c(n2)-c2ccc(Cl)cc2C(c2c(F)cccc2OC)=NC3)ccc1C(=O)O + COc1cc2nc(C)nc(NC(C)c3cc(N)cc(C(F)(F)F)c3)c2cc1OC1CCOC1	> 10	> 10	> 10	> 10	0.0883	110	99.3	114	96.4	108	102	98.8	96.8	83.4	45.5	90.9	105	106	108	90.7	viability, T/C [16]: 96.1%; viability, T/C [17]: 102%; viability, T/C [18]: 105%; viability, T/C [19]: 101%; viability, T/C [20]: 93.7%; viability, T/C [21]: 108%; viability, T/C [22]: 107%; viability, T/C [23]: 92.3%; viability, T/C [24]: 92.5%; viability, T/C [25]: 97.5%; viability, T/C [26]: 114%; viability, T/C [27]: 44%; viability, T/C [28]: 45.6%; viability, T/C [29]: 62.9%; viability, T/C [30]: 30.3%
COc1cc2nccc(Oc3ccc(NC(=O)C4(C(=O)Nc5ccc(F)cc5)CC4)cc3)c2cc1OC + COc1cc2nc(C)nc(NC(C)c3cc(N)cc(C(F)(F)F)c3)c2cc1OC1CCOC1	> 10	> 10	4.63	1.72	< 0.0316	99.6	102	96.6	93.5	97.4	93.4	88.8	97.9	55	17.2	104	91	65.2	60	93.1	viability, T/C [16]: 80.9%; viability, T/C [17]: 65.8%; viability, T/C [18]: 54.8%; viability, T/C [19]: 76.2%; viability, T/C [20]: 73.9%; viability, T/C [21]: 48.7%; viability, T/C [22]: 44.6%; viability, T/C [23]: 89.5%; viability, T/C [24]: 67.6%; viability, T/C [25]: 28.7%; viability, T/C [26]: 31.8%; viability, T/C [27]: 21.5%; viability, T/C [28]: 28.1%; viability, T/C [29]: 0.71%; viability, T/C [30]: 0.34%
